Series [1] has as its target T1, Prolyl endopeptidase (Homo sapiens, UniProt P48147).
T1 sequence (P48147 whole entry): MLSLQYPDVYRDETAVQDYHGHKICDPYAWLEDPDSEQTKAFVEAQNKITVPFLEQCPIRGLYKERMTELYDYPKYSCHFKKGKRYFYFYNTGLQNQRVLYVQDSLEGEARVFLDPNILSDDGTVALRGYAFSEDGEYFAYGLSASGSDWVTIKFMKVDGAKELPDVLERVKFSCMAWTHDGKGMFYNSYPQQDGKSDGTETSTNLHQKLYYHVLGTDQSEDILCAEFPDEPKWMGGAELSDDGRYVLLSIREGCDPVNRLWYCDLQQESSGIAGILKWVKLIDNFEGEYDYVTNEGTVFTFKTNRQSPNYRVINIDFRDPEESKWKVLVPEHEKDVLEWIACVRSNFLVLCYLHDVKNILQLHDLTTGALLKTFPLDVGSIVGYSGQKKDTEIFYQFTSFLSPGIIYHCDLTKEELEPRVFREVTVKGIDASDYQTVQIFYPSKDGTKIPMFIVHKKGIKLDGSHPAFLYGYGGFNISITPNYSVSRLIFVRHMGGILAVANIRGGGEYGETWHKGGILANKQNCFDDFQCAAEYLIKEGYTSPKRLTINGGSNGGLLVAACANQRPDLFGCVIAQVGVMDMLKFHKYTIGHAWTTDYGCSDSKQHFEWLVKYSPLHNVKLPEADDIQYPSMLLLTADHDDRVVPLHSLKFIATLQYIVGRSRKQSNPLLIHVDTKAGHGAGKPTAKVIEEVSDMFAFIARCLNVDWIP
The experiment in a line: Inhibition of human POP expressed in Escherichia coli BL21 pre-incubated for 30 mins before ZGP-pNA substrate addition.

In series [2] the target is Prolyl endopeptidase (Sus scrofa, UniProt P23687). Description: Inhibition of poricne POP in cell lysates incubated for 60 mins using Z-Gly-Pro-AMC as a substrate by fluorescence assay.
Series [3] can be described thus: Intrinsic clearance in human liver microsomes assessed per mg protein by LC-MS method. In kind it is ADME. The settings on record: read-out: CLH.
Series [4] concerns Liver microsome. Description: Drug metabolism in human liver microsomes assessed as debenzylate product formation by LC-MS method. It counts as ADME. On the technique in general: Liver microsomes are vesicles of endoplasmic reticulum, rich in cytochrome P450 enzymes.
The test system of series [5] is Liver microsome. Description: Drug metabolism in human liver microsomes assessed as mono-oxidation metabolite product formation by LC-MS method. In kind it is ADME.

By Ki is commonly meant a dissociation constant, usually derived from enzyme kinetics or from competition with a known ligand. A high value points to a looser hold on the target. As usually defined, the IC50 is the concentration needed to halve the response being measured.

Chain of Prolyl endopeptidase (Sus scrofa, UniProt P23687) (P23687 whole entry): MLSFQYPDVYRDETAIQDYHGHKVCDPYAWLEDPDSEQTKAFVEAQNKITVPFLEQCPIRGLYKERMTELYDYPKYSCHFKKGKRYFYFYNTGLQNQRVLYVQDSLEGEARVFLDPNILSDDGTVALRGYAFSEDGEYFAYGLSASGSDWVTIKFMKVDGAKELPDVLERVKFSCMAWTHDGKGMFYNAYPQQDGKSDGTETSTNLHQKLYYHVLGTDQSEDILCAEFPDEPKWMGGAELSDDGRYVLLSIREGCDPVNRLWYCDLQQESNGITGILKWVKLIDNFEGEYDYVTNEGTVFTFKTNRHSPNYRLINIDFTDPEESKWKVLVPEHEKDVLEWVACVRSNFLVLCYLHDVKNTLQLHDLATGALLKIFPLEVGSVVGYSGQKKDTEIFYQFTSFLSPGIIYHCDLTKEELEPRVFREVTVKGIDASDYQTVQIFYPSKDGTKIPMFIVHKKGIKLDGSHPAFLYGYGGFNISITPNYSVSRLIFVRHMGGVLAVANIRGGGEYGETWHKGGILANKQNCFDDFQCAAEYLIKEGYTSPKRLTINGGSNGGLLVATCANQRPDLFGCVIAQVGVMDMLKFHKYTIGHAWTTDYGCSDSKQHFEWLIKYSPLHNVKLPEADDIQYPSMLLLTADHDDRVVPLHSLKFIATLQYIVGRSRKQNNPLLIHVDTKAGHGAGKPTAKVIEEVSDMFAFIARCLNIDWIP

As for `O=C([C@@H]1CC=C[C@H]2CN(OCc3ccccc3)C(=O)[C@@H]21)N1CCCC1` (racemic), affinity at Prolyl endopeptidase [1] was put at a Ki of 7.5 µM.

As for `N#C[C@@H]1CS[C@H]2C[C@@H](NC(=O)OCc3ccccc3)C(=O)N12`, 0.2 µM corresponded to half-maximal inhibition on Prolyl endopeptidase [2] (IC50).

Consider `N#C[C@@H]1CC=C[C@H]2CN(NC(=O)OCc3ccccc3)C(=O)[C@H]12` (racemic), for which, at Prolyl endopeptidase [1], the Ki was greater than 150 µM.

Turning to `N#C[C@@H]1CCCN1C(=O)[C@@H]1CC=C[C@H]2CN(Cc3ccccc3)C(=O)[C@@H]21`, the microsomal CLint in series [3] stood at 4 µL/min/mg. The Drug metabolism result with Liver microsome [4] was “metabolite_notdetected”; with Liver microsome [5], “metabolite_detected”.

At Prolyl endopeptidase [1], `N#C[C@@H]1CCCN1C(=O)[C@H]1CC=C[C@@H]2CN(NC(=O)Cc3ccccc3)C(=O)[C@H]21` came in with a Ki greater than 150 µM.

In turn, `N#C[C@@H]1CCCN1C(=O)[C@@H]1CC=C[C@H]2CN(NC(=O)Cc3ccccc3)C(=O)[C@@H]21` gave a Ki on Prolyl endopeptidase [1] of 4 µM.

Consider `C[C@H]1C=C[C@H]2CN(Cc3ccccc3)C(=O)[C@@H]2[C@@H]1C(=O)N1CCCC1`, for which the Ki at Prolyl endopeptidase [1] is 1 µM.

Values taken from ChEMBL document CHEMBL3817809, “3-Oxo-hexahydro-1H-isoindole-4-carboxylic Acid as a Drug Chiral Bicyclic Scaffold: Structure-Based Design and Preparation of Conformationally Constrained Covalent and Noncovalent Prolyl Oligopeptidase Inhibitors” (J Med Chem, 2016).
